According to patent US20250327028A1, “ENGINEERED PLATELETS AS TARGETED PROTEIN DEGRADERS” (Wisconsin Alumni Research Foundation, priority 2024, published 2025):

Tests used:
WT MDA-MB-231 cells = experiment: In-gel fluorescence detection of NA-647 internalization in WT MDA-MB-231 cells; assay type: cell-based, human; details: WT MDA-MB-231, 2-h HAI at various concentrations prior to HAC-B 5 μM 4 h
Description: In-gel fluorescence detection: In-gel fluorescence was mainly used to investigate the internalization of NeutrAvidin™_647 in HAC-B-treated cancer cells.
Sample preparation: 4T1 or WT MDA-MB-231 cells were seeded in 6-well culture plates with a density of 5×10^4 cells in each well and cultured for 24 h. If HAI pretreatment was performed, the cells were incubated in the HAI-containing blank medium at different concentrations for 2 h and washed with PBS twice before the following treatments. Then, the cells were treated with free HAC-B or the combinations of various ligands at the indicated concentrations for the predetermined time points. Next, the drug-containing medium was removed, and PBS was used to wash the cells twice, followed by incubating the cells in the blank medium containing NeutrAvidin™ DyLight™ 650 (NA-647, Invitrogen/84607) at 0.5 μM for 1 h. Finally, the cells were washed with PBS and lysed on ice with the RIPA buffer containing PMSF (1 mM) and the phosphatase inhibitor cocktail for 30 min. A s for the 4T1 cells cotreated with NA-647 and HAC-B, the cells after 24-h incubation were treated with the blank medium containing NA-647 at 0.5 μM and HAC-B at various concentrations for 2 h before cell lysis.
In-gel fluorescence imaging: After 30-min lysis, the lysates were centrifuged at 10,000 g for 10 minutes at 4° C., and the corresponding supernatants were collected, followed by quantification of the total proteins in the supernatant through the BCA assay. Afterward, the proteins in the supernatant were mixed with ¼ volume of 5× sample buffer formulated by Tris-HCl (pH 6.8, 312.5 mM), sucrose (25%), SDS (10%), bromophenol blue (0.025%), and dithiothreitol (DTT, 250 mM). After incubation for 1 h at room temperature, equal amounts of proteins from different samples ([…] per lane) were loaded into the 12% Bis-Tris gel. After the proteins were separated, the gels were subjected to fluorescence imaging with the ChemiDoc™ MP imaging system (Bio-Rad).

BRD4 [1] = biological target: T1, BRD4 (Mus musculus, UniProt Q9ESU6); experiment: Immunoblot analysis of BRD4 degradation in 4T1 cells after DePLT or PMP treatment; assay type: cell-based, murine; details: 2-h HAI pretreatment, 1×10^8 iDePLTs 12 h
T1 construct: endogenous in cells; host or cells: 4T1
Description: (§1) Immunoblot analysis: Immunoblot analysis was used to evaluate the expression of BRD4, HSP90, HSP90a, and PD-L1 in 4T1, WT MDA-MB-231, HSP90α-KO MDA-MB-231 or PEA-10 cells after various treatments and also served as the detection method for IP or co-IP experiments. The procedures for preparing IP or co-IP samples were indicated in the relevant experimental parts.
(§2) Sample preparation for 4T1 cells after DePLT treatment: 4T1 cells were seeded in 6-well culture plates with a density 5×10^4 cells in each well and cultured for 24 h. The engineered platelets, including iDePLT and eDePLT, were generated by incubating the fresh platelets in PBS containing iHAC or eHAC at 20 μM for 2 h. The fresh nPLT was used as the control. Then, if HAI pretreatment was performed, the cells were incubated in the HAI-containing blank medium at different concentrations for 2 h and washed with PBS twice before the following treatments. […]
(§3) General procedures for immunoblot analysis: After a 30-min lysis, the lysates were centrifuged at 10,000 g for 10 minutes at 4° C., and the corresponding supernatants were collected, followed by quantification of the total proteins in the supernatant through the BCA assay. […] Finally, the bands were treated with electrochemiluminescence (ECL) western blot substrate, detected by the iBright™ imaging system and quantified with ImageJ software. […]

BRD4 [2] = biological target: T1, BRD4; experiment: Immunoblot analysis of BRD4 degradation in 4T1 cells after free HAC treatment; assay type: cell-based, murine; details: 4T1 cells, 2-h HAI pretreatment at various concentrations, then iHAC 10 μM 12 h
From the text: as §1
Sample preparation for various cancer cells after free HAC treatment: Various cells, including 4T1, WT MDA-MB-231, HSP90α-KO MDA-MB-231, or PEA-10 cells, were seeded in 6-well culture plates with a density of 5×10^4 cells in each well and cultured for 24 h. Then, if HAI pretreatment was performed, the cells were incubated in the HAI-containing blank medium at different concentrations for 2 h and washed with PBS twice before the following treatments. The medium in the corresponding wells was replaced with 1 mL of blank medium containing the DMSO vehicle, HACs, or the combinations of various free ligands at the predetermined concentrations. After incubation for the indicated time points, cells were washed with PBS and lysed on ice with the relevant lysis buffer containing PMSF (1 mM) and the phosphatase inhibitor cocktail for 30 min. As for the conditioned medium (CM), the culturing complete medium of the corresponding cancer cells in each well was collected after 24-h incubation and subjected to centrifugation at 2000 rpm for 5 min to obtain the supernatant. The filtrate of the supernatants was collected following filtration over a 0.45 μm filter, serving as the CM. Regarding the cell samples for BRD4 detection, the lysis buffer containing HEPES-KOH (pH=7.5, 10 mM), NaCl (500 mM), EDTA (5 mM), NP-40 (1%), and SDS (0.1%) was used with the indicated PMSF and phosphatase inhibitor cocktail. As for PD-L1 detection, RIPA buffer (Thermo Fisher Scientific/J63306.AP) was used with the indicated PMSF and phosphatase inhibitor cocktail.
General procedures for immunoblot analysis: After a 30-min lysis, the lysates were centrifuged at 10,000 g for 10 minutes at 4° C., and the corresponding supernatants were collected, followed by quantification of the total proteins in the supernatant through the BCA assay. Afterward, the proteins in the supernatant were mixed with the loading buffer and heated at 95° C. for 15 min. Equal amounts of proteins from different samples ([…]) were loaded into the Bis-Tris gel formulated with Bis-Tis buffer, 30% acrylamide/Bis, 10% ammonium persulfate (APS) solution, and TEMED. The separated proteins were transferred to polyvinylidene fluoride (PVDF) membranes before the membranes were blocked with 5% nonfat milk in PBS-T. Next, the PVDF membranes were incubated with primary antibodies overnight at 4° C., if necessary, followed by the incubation with the goat-anti-rabbit IgG H & L (HRP) secondary antibodies at room temperature for 2 h. Finally, the bands were treated with electrochemiluminescence (ECL) western blot substrate, detected by the iBright™ imaging system and quantified with ImageJ software. 8% Bis-Tris gels were used for BRD4 detection, and 10% gels were adopted to analyze PD-L1.

PD-L1 = biological target: T2, PD-L1 (Mus musculus, UniProt Q9EP73); experiment: Immunoblot analysis of PD-L1 degradation in 4T1 cells after eDePLT treatment; assay type: cell-based, murine; details: 2-h HAI pretreatment, 1×10^8 eDePLTs 8 h
T2 construct: endogenous in cells; host or cells: 4T1
Description: as §1, §2, §3

T2 sequence (Q9EP73 19-290): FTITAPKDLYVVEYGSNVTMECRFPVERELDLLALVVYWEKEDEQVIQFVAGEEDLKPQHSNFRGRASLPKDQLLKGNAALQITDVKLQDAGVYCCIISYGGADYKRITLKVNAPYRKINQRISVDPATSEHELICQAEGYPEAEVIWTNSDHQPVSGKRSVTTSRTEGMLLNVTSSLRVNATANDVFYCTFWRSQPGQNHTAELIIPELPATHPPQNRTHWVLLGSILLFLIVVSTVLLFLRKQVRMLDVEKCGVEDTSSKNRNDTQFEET

## Nc1ncnc2c1nc(Sc1cc3c(cc1I)OCO3)n2CCCNCc1cccc(S(=O)(=O)F)c1 [HAI, 3-(((3-(6-amino-8-((6-iodobenzo[d][1,3]dioxol-5-yl)thio)-9H-purin-9-yl)propyl)amino)methyl)benzenesulfonyl fluoride]
WT MDA-MB-231 cells
  NA-647 uptake by HAC-B after HAI preincubation: largely compromised NA-647 uptake
BRD4 [1]
  BRD4 downregulation by iDePLT after HAI pretreatment of target cells: failed to relieve BRD4 downregulation
BRD4 [2]
  BRD4 degradation by iHAC after HAI pretreatment: inferior BRD4 degradation efficacy
PD-L1
  PD-L1 degradation by eDePLT after HAI pretreatment of target cells: failed to rescue the PD-L1 degradation
